In ChEMBL document CHEMBL5506025, “Discovery of LLC0424 as a Potent and Selective in Vivo NSD2 PROTAC Degrader” (J Med Chem, 2024):
Activity calls are given as the source filed them. The rule behind the calls is not given here.

Legend:
[1] = biological target: T1, Protein cereblon/Histone-lysine N-methyltransferase NSD2 (Homo sapiens) (UniProt O96028+Q96SW2); assay: PROTAC activity at CRBN/NSD2 in human RPMI 8402 cells assessed as induction of NSD2 degradation at 0.5 to 2 uM measured after 24 hrs by immunoblot analysis; format: cell-based; conditions: dose 0.5-2 µM
[2] = biological target: T1, Protein cereblon/Histone-lysine N-methyltransferase NSD2 (Homo sapiens); assay: PROTAC activity at CRBN/NSD2 in human SEM cells assessed as induction of NSD2 degradation at 0.5 to 2 uM measured after 24 hrs by immunoblot analysis; format: cell-based; conditions: dose 0.5-2 µM
[3] = biological target: T1, Protein cereblon/Histone-lysine N-methyltransferase NSD2 (Homo sapiens); assay: PROTAC activity at CRBN/NSD2 in human RPMI 8402 cells assessed as induction of NSD2 degradation at 2 uM measured after 12 to 24 hrs by immunoblot analysis; format: cell-based; conditions: time 12-24 hrs
[4] = biological target: T1, Protein cereblon/Histone-lysine N-methyltransferase NSD2 (Homo sapiens); assay: PROTAC activity at CRBN/NSD2 in human SEM cells assessed as induction of NSD2 degradation at 2 uM measured after 12 to 24 hrs by immunoblot analysis; format: cell-based; conditions: time 12-24 hrs
[5] = biological target: T2, Histone-lysine N-methyltransferase NSD2 (Homo sapiens, UniProt O96028); assay: Induction of NSD2 degradation in HEK293FT cells measured after 48 hrs; format: cell-based
T2 sequence (O96028 whole entry): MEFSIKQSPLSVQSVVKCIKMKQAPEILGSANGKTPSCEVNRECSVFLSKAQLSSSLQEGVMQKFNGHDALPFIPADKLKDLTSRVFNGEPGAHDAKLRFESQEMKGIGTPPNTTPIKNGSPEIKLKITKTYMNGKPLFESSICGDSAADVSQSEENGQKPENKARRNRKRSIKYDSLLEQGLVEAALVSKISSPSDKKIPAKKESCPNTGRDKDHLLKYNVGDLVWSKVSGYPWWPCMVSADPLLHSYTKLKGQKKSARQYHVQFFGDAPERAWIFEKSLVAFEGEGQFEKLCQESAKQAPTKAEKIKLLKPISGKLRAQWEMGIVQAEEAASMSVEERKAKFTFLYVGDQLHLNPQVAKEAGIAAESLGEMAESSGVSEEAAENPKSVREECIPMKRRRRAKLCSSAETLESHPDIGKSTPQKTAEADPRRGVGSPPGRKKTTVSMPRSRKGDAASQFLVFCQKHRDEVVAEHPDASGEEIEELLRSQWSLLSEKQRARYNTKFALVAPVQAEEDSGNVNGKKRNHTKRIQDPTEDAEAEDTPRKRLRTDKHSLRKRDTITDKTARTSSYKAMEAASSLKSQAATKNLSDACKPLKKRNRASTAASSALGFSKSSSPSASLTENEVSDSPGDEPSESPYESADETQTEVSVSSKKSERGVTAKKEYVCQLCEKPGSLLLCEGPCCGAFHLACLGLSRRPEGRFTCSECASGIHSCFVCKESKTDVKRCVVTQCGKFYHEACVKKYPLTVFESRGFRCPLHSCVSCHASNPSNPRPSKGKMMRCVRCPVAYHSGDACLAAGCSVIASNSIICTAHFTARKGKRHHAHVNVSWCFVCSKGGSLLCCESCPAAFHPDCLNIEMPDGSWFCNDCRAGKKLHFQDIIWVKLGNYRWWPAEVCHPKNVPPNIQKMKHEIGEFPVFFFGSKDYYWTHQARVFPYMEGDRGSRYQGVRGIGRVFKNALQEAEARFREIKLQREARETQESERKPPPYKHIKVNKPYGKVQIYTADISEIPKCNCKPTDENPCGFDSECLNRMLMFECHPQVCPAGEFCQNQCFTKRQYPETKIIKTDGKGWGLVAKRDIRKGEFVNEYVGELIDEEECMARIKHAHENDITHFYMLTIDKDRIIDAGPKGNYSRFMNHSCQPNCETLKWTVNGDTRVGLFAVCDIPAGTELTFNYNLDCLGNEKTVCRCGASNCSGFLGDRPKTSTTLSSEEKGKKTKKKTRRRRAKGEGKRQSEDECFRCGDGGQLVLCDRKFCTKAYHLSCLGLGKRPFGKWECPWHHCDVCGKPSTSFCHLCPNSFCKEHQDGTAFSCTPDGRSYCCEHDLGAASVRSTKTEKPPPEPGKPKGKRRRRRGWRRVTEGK

RPMI 8402 = assay: Inhibition of colony formation in human RPMI 8402 cells at 2 uM administered every three days for 30 days by iodonitrotetrazolium chloride staining based microscopy analysis; format: functional, cell-based; conditions: time 30.0 day
[6] = biological target: T1, Protein cereblon/Histone-lysine N-methyltransferase NSD2 (Homo sapiens); assay: PROTAC activity at CRBN/NSD2 in human SEM cells assessed as induction of NSD2 degradation at 2 uM measured upto 24 hrs by immunoblot analysis; format: cell-based
[7] = biological target: Protein cereblon/Eukaryotic peptide chain release factor GTP-binding subunit ERF3A (Homo sapiens) (UniProt Q96SW2+P15170); assay: PROTAC activity at CRBN/GSPT1 in human SEM cells assessed as decrease in GSPT1 level at 2 uM measured upto 24 hrs by immunoblot analysis; format: cell-based
Protein cereblon/Eukaryotic peptide chain release factor GTP-binding subunit ERF3A (Homo sapiens), sequence (P15170 whole entry, looked up): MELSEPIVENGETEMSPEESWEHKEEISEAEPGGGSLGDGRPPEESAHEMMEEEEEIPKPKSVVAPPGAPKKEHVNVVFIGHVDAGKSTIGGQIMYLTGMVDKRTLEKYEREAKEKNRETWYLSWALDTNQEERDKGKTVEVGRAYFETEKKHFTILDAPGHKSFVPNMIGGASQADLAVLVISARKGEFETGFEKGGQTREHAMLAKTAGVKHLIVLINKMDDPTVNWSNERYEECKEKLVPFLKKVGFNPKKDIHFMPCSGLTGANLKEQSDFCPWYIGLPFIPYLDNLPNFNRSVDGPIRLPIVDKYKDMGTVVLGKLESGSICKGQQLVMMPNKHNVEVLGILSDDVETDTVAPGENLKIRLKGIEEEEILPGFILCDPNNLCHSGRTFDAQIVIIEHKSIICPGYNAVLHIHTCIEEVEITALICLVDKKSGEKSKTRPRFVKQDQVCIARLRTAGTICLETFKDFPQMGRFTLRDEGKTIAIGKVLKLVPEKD
Protein cereblon/Eukaryotic peptide chain release factor GTP-binding subunit ERF3A (Homo sapiens), sequence (Q96SW2 whole entry, looked up): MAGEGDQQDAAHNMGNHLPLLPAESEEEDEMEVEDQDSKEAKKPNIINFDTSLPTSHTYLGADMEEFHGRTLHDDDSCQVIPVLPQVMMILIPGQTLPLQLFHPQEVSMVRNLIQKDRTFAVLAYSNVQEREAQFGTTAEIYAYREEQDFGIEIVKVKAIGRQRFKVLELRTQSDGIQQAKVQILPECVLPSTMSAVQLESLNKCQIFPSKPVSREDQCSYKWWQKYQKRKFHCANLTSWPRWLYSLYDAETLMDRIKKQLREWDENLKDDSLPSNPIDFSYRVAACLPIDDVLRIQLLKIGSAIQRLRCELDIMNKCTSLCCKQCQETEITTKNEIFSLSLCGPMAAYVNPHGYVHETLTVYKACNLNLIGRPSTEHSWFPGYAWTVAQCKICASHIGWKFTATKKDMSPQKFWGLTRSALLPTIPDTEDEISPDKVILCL

T1 sequence (Q96SW2 whole entry, looked up, one chain of several): as the sequence (Q96SW2 whole entry, looked up) above

Structure (SMILES) | Activity [1] | Activity [2] | Activity [3] | Activity [4] | DC50 [5] [µM] | inhibition (RPMI 8402) | Activity [6] | Activity [7]
NCCCCCCNC(=O)c1ccc(NC(=O)c2ccc(CN(C(=O)c3ccc4c(c3)OCC(=O)N4)C3CC3)cc2)cc1 | inactive | inactive | inactive | inactive | – | – | – | –
O=C(CNc1cccc2c1C(=O)N(C1CCC(=O)NC1=O)C2=O)NCCCOc1ccc(NC(=O)c2ccc(CN(C(=O)c3ccc4c(c3)OCC(=O)N4)C3CC3)cc2)nc1 (stereo unspecified) | inactive | inactive | inactive | inactive | 5.2 | – | – | –
CN1C(=O)CCC(N2C(=O)c3ccc(N4CCC(NC(=O)c5ccc(NC(=O)c6ccc(CN(C(=O)c7ccc8c(c7)OCC(=O)N8)C7CC7)cc6)cc5)CC4)cc3C2=O)C1=O (stereo unspecified) | inactive | inactive | inactive | inactive | – | inactive | – | –
CC(C)N(Cc1ccc(C(=O)Nc2ccc(C(=O)NC3CCN(c4ccc5c(c4)C(=O)N(C4CCC(=O)NC4=O)C5=O)CC3)cc2)cc1)C(=O)c1ccc2c(c1)OCC(=O)N2 (stereo unspecified) | – | – | – | – | – | – | inactive | Active
